Laboratory results as given in BindingDB's records for patent US20230322767 (Bayer Aktiengesellschaft, 2023).

Experiments:
[1] = target: T1, Casein kinase I isoform alpha (Homo sapiens, UniProt P48729); experiment: CSNK1A1 1uM ATP Assay
Description: The concentration of CSNK1A1 was adjusted depending of the activity of the enzyme lot and was chosen appropriate to have the assay in the linear range, a typical concentration is about 0.4 ng/μL. The reaction was stopped by the addition of 2.5 μL of ADP-Glo-reagent (1:1.5 fold diluted with water) and the resulting mixture was incubated at 22° C. for 1 h to convert the ATP not consumed in the kinase reaction completely to […]. […] The amount of emitted light was taken as a measure for the amount of ADP generated and thereby for the activity of the CSNK1A1.

[2] = target: Epidermal growth factor receptor (Homo sapiens, UniProt P00533); experiment: WT-EGFR Kinase Assay
Description: For the assay 50 nl of a 100 fold concentrated solution of the test compound in DMSO was pipetted into either a black low volume 384 well microtiter plate or a black 1536 well microtiter plate (both Greiner Bio-One, Frickenhausen, Germany), 2 μL of a solution of EGFR in aqueous assay buffer [50 mM Hepes pH 7.0, 10 mM MgCl2, 1 mM dithiothreitol, 0.5 mM EGTA, 0.3 mM activated sodium ortho-vanadate, 0.005% (w/v) bovine serum albumin, 0.005% (v/v) Tween-20] were added and the mixture was incubated for 15 min at 22° C. to allow pre-binding of the test compounds to the enzyme before the start of the kinase reaction. […] The concentration of EGFR was adjusted depending of the activity of the enzyme lot and was chosen appropriate to have the assay in the linear range, typical concentration was […]. The reaction was stopped by the addition of 3 μL of a solution of HTRF detection reagents (83.3 nM streptavidine-XL665 [Cisbio Bioassays, Codolet, France] and 1.67 nM PT66-Tb-Cryptate, a terbium-cryptate labelled anti-phospho-tyrosine antibody from Cisbio Bioassays [instead of the PT66-Tb-cryptate PT66-Eu-Chelate from Perkin Elmer can also be used]) in an aqueous EDTA-solution (133.3 mM EDTA, 0.2% (w/v) bovine serum albumin in 50 mM HEPES pH 7.5).

[3] = target: Casein kinase I isoform delta (Homo sapiens, UniProt P48730); experiment: CSNK1D Assay
Description: As substrate for the kinase reaction the biotinylated peptide Btn-Ahx-[…] […] The concentration of CSNK1D was adjusted depending of the activity of the enzyme lot and was chosen appropriate to have the assay in the linear range, a typical concentration is about 0.5 ng/μL. The reaction was stopped by the addition of 2.5 μL of “ADP-Glo-reagent” (1:1.5 fold diluted with water) and the resulting mixture was incubated at 22° C. for 1 h to convert the ATP not consumed in the kinase reaction completely to […]. […] The amount of emitted light was taken as a measure for the amount of ADP generated and thereby for the activity of the CSNK1D.

[4] = target: T1, Casein kinase I isoform alpha; experiment: CSNK1A1 High ATP Assay
Source text: Recombinant fusion protein of N-terminal Glutathion-S-Transferase (GST) and full-length human CSNK1A1, expressed by baculovirus infected insect cells and purified via Glutathion affinity chromatography, was purchased from Life Technologies (product no. PV4174) and used as enzyme. As substrate for the kinase reaction the biotinylated peptide biotin-Ahx-KRRRAL-pS-VASLPGL (C-terminus in amide form) was used which can be purchased e.g. from the company Biosyntan (Berlin-Buch, Germany).[2164]For the assay 50 nl of a 100 fold concentrated solution of the test compound in DMSO was pipetted into a white low volume 384-well microtiter plate (Greiner Bio-One, Frickenhausen, Germany), 2 μL of a solution of CSNK1A1 in aqueous assay buffer [50 mM HEPES pH 7.5, 10% (v/v) glycerol, 10 mM MgCl2, 50 mM NaCl, 1 mM dithiothreitol, 0.01% (w/v) bovine serum albumin, 0.01% (v/v) Triton X-100] were added and the mixture was incubated for 15 min at 22° C. to allow pre-binding of the test compounds to the enzyme before the start of the kinase reaction. […] The concentration of CSNK1A1 was adjusted depending of the activity of the enzyme lot and was chosen appropriate to have the assay in the linear range, a typical concentration is about 0.4 ng/μL. The reaction was stopped by the addition of 2.5 μL of ADP-Glo-reagent (1:1.5 fold diluted with water) and the resulting mixture was incubated at 22° C. for 1 h to convert the ATP not consumed in the kinase reaction completely […]. Subsequently 2.5 μL of the kinase detection reagent (1.2 fold more concentrated than recommended by the producer) were added, the resulting mixture was incubated at 22° C. for 1 h and then the luminescence measured with a suitable measurement instrument (e.g. Viewlux™ from Perkin-Elmer). The amount of emitted light was taken as a measure for the amount of ADP generated and thereby for the activity of the CSNK1A1.

Sequence of Epidermal growth factor receptor (P00533 whole entry): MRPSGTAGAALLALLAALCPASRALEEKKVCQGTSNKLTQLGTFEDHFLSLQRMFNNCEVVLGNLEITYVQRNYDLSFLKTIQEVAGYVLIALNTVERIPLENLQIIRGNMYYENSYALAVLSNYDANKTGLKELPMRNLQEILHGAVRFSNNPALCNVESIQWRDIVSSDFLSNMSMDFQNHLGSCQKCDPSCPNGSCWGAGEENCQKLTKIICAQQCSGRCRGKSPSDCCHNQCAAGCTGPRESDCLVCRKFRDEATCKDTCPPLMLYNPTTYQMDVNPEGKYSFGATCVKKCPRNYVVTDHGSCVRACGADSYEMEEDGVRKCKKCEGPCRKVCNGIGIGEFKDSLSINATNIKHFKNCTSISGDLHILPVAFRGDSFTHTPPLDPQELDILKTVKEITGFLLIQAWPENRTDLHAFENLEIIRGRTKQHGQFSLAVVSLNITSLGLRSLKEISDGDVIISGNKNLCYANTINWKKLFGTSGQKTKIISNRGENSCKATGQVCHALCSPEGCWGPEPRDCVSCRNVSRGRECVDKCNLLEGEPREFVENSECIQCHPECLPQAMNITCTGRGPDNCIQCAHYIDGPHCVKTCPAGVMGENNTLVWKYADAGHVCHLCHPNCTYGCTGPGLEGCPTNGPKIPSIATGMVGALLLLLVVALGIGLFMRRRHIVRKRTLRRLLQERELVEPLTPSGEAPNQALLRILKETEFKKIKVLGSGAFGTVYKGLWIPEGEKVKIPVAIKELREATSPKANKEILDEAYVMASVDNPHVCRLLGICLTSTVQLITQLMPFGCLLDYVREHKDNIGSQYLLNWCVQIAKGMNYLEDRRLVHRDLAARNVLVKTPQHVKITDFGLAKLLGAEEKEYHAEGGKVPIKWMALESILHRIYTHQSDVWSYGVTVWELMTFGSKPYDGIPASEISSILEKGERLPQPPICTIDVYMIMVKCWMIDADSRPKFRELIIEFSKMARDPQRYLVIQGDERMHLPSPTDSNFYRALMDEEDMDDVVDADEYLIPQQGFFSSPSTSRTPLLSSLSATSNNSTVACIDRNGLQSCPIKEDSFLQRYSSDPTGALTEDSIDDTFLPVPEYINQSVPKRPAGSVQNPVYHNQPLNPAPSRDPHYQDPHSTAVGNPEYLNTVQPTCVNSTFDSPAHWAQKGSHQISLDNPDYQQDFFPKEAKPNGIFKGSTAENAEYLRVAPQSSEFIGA
T1 sequence (P48729 whole entry, canonical isoform): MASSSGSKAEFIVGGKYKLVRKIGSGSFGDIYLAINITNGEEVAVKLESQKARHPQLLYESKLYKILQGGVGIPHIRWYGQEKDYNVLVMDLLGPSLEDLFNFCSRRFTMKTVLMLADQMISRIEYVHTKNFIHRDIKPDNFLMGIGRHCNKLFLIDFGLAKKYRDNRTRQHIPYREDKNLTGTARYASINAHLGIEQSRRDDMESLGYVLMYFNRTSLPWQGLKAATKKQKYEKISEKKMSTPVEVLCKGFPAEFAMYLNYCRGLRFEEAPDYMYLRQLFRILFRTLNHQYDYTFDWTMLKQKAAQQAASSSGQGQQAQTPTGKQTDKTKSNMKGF
Sequence of Casein kinase I isoform delta (P48730 whole entry, canonical isoform): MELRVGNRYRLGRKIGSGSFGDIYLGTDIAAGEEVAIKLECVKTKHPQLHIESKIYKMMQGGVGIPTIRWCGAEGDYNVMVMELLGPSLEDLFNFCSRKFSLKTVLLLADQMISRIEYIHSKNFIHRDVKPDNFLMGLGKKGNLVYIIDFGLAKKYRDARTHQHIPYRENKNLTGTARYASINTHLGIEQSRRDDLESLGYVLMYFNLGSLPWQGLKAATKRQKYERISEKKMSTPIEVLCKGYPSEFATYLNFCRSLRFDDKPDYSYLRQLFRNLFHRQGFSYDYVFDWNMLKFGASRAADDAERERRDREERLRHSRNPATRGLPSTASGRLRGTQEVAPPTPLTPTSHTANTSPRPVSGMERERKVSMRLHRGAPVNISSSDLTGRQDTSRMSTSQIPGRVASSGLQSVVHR

SMILES | IC50 [1] | IC50 [2] | IC50 [3] | IC50 [4]
Cn1ccc2[nH]c(-c3ccnc(NC(=O)Cc4ccc(F)cc4)c3)c(-c3ccccc3)c2c1=O [US20230322767, Example 5] | 0.86 nM | > 20000 nM | 2.5 nM | 
O=c1[nH]ccc2[nH]c(-c3ccncc3F)c(Nc3ccccc3)c12 [US20230322767, Example No. 16 WO 2016/120196] |  | 303 nM |  | 40.3 nM
CN1CCc2[nH]c(-c3ccnc(NC(=O)C4CC4)c3)c(Nc3ccccc3)c2C1=O |  | 42.6 nM |  | < 3.43 nM
CN1CCc2[nH]c(-c3ccnc(NC(=O)[C@H]4C[C@H]4F)c3)c(Nc3ccccc3)c2C1=O (relative stereo; form 1) [US20230322767, Example No. 40 WO 2016/120196] |  | 85.5 nM |  | 24.1 nM
CN1CCc2[nH]c(-c3ccnc(NC(=O)[C@H]4C[C@H]4F)c3)c(Nc3ccccc3)c2C1=O (relative stereo; form 2) [US20230322767, Example No. 25 WO 2016/120196] |  | 321 nM |  | 62.5 nM
